Reference: patent US20060101536A1, “Eucalyptus urophylla transformation and regeneration” (ArborGen, LLC, priority 2004, published 2006)

Tests used:
[1] = test system: Elite Eucalyptus urophylla clone; experiment: Auxin pre-treatment, Agrobacterium infection rate by GUS staining; type: cell-based
Protocol: GUS staining was performed to monitor the frequency of Agrobacterium infection and to ensure that the selected shoots are not escapes or chimeras. […] To determine GUS activity, the explants were incubated in a substrate comprising 100 mM phosphate buffer (pH 7.0), 0.05% dimethyl suphoxide, 0.05% Triton X-100, 10 mM EDTA, 0.5 mM potassium ferrocyanide, and 1.5 mg/ml 5-bromo-4-chloro-3-indolyl-β-D-glucuronide (X-gluc). The explants were subjected to 10 minutes of vacuum before an overnight incubation at 37° C. Following overnight incubation, GUS foci were counted.
Explants from E. urophylla and E. saligna were prepared as described in Example 1 and Agrobacterium strain GV2260 containing pWVR133 was prepared as described in Example 3. Harvested explants were incubated in the dark for 4 days either on Eucalyptus regeneration medium or a medium with various auxin-rich growth regulators. Agrobacterium culture was dripped on explants and co-cultured with the explants on the same medium for 3 days in dark. Then, explants were removed from the Agrobacterium puddle and transferred to Euc Regeneration medium supplemented with 400 mg/l timentin for 4 days. Following transfer to regeneration medium, the explants were stained for GUS expression.

E. urophylla = experiment: Combining auxin with Agrobacterium inducer in pre-culture, infection by GUS staining; type: cell-based, Eucalyptus urophylla; details: Table 8
Protocol: Induced Agrobacterium culture was prepared as described in Example 3 and the culture was dripped onto each explant by pipette. Sufficient Agrobacterium culture was dripped to ensure that all the cut edges were covered with bacterial solution. Alternatively, the explants may be transformed by vacuum infiltration, floral dip, and other methods of Agrobacterium-mediated transformation. Following transformation, explants covered with Agrobacterium culture were placed in the dark for four days of co-cultivation. Alternatively, the explants may be co-cultivated with Agrobacterium under light conditions. Additionally, the explants may be co-cultivated with Agrobacterium under light or dark conditions for 2-10 days, preferably 4 days. Following co-cultivation, the explants were transferred to Euc Regeneration medium (Table 3) with 400 mg/l timentin. There is no need to wash explants. Explants were cultured on this medium for four days before transfer to a selection medium. In the present example, the selection medium is the Euc Regeneration medium supplemented with both timentin and an herbicide selection agent.
(§1) GUS staining was performed to monitor the frequency of Agrobacterium infection and to ensure that the selected shoots are not escapes or chimeras. For transformation experiments with pWVR133, the leaf and stem tissues from the regenerated shoots were stained for GUS expression immediately upon shoot development. For transformation experiments with pWVZ20, leaf and stem tissues from the regenerated shoots were stained for GUS expression when shoots are further developed and free from residual Agrobacterium. To determine GUS activity, the explants were incubated in a substrate comprising 100 mM phosphate buffer (pH 7.0), 0.05% dimethyl suphoxide, 0.05% Triton X-100, 10 mM EDTA, 0.5 mM potassium ferrocyanide, and 1.5 mg/ml 5-bromo-4-chloro-3-indolyl-β-D-glucuronide (X-gluc). The explants were subjected to 10 minutes of vacuum before an overnight incubation at 37° C. Following overnight incubation, GUS foci were counted.
In the following examples, explants from E. urophylla clones were cultured on auxin-rich pre-culture medium with or without 250 μM AS before infection. Explants were pre-cultured with Euc Regeneration medium as the control. Following pre-culture, the explants were inoculated with Agrobacterium as described in Example 5.

[2] = test system: Elite Eucalyptus urophylla clone; experiment: Shoot regeneration after pre-culture in control experiments; type: cell-based; details: medium with 1.0 mg/l 2,4-D (0.5 mg/l zeatin)
Excerpt: In addition, the regeneration is not affected by the pre-culture in control experiments.

[3] = test system: wounded cells along the cut edges; experiment: Agrobacterium inducer alone in pre-culture medium, infection by GUS staining; type: cell-based
[4] = test system: E. urophylla leaf explants; experiment: Geneticin selection of NPTII transformants, GUS staining of resistant calli; type: cell-based, Eucalyptus urophylla; details: about 10 weeks selection
Protocol: as §1
E. urophylla leaf explants were infected with Agrobacterium strain GV2260 harboring pWVC33, which contains GUS gene (driven by an constitutive promoter) and NPTII gene (driven by a different constitutive promoter). Before transforming, the explants were pre-cultured for 4 days on a medium having auxin enrichment (IAA at 2 mg/l instead of 0.1 mg/l NAA in standard regeneration medium) and acetosyringone (250 μM). As described in Example 6, the explants were infected with Agrobacterium, co-cultivated on the same medium for 3 days, and then transferred to a regeneration medium supplemented with 400 mg/l timentin for 4 days. Then, the explants were transferred to a selection medium containing geneticin instead of an herbicide selection agent.
The transformants were placed on geneticin selection medium containing geneticin (either 20 or 30 mg/l). Instead of the 3- or 4-week transfer cycles used with an herbicide selection medium, the explants were transferred bi-weekly to fresh geneticin medium. […]

[5] = Table 6, 0.25 mg/l 2,4-D + 0.5 mg/l zeatin
[6] = Table 6, 1.0 mg/l 2,4-D + 0.5 mg/l zeatin
[7] = Table 7, 0.5 mg/l in EucReg Medium + 5 mg/l zeatin
[8] = Table 7, 0.5 mg/l in EucReg Medium + 5 mg/l zeatin, 25 explants
[9] = Table 7, 1.0 mg/l in EucReg Medium + 5 mg/l zeatin
[10] = Table 7, 1.0 mg/l in EucReg Medium + 5 mg/l zeatin, 25 explants
[11] = 0.25 mg/l 2,4-D + 5.0 mg/l zeatin, with or without 250 μM AS
[12] = Table 7, 2.0 mg/l in EucReg Medium + 5 mg/l zeatin
[13] = Table 7, 2.0 mg/l in EucReg Medium + 5 mg/l zeatin, 25 explants
[14] = Table 7, 3.0 mg/l in EucReg Medium + 5 mg/l zeatin
[15] = 2 mg/l IAA + 5.0 mg/l zeatin, with or without 250 μM AS
[16] = Table 6, 0.1 mg/l NAA + 5.0 mg/l zeatin (Control Regeneration Medium)
[17] = Table 7, 0.1 mg/l in EucReg Medium + 5 mg/l zeatin
[18] = Table 7, 0.1 mg/l in EucReg Medium + 5 mg/l zeatin, 25 explants
[19] = 0.1 mg/l NAA + 5.0 mg/l zeatin (Control Regeneration Medium)

Compound	% GUS+ [1, 7] [%]	Avg. No. Foci/Responding Explant [1, 7]	No. GUS Foci [1, 7]	No. GUS+ [1, 8]	% GUS+ [1, 9] [%]	Avg. No. Foci/Responding Explant [1, 9]	No. GUS Foci [1, 9]	No. GUS+ [1, 10]	% GUS+ [1, 12] [%]	Avg. No. Foci/Responding Explant [1, 12]	No. GUS Foci [1, 12]	No. GUS+ [1, 13]	% GUS+ [1, 17] [%]	Avg. No. Foci/Responding Explant [1, 17]	No. GUS Foci [1, 17]	No. GUS+ [1, 18]	also measured
O=C(O)COc1ccc(Cl)cc1Cl [2,4-D, 2,4-Dichlorophenoxy acetic acid]	80	4.9	97	20	48	5.3	64	12	–	–	–	–	–	–	–	–	% GUS+ [1, 5]: 17%; Avg. No. Foci/Responding Explant [1, 5]: 1.5; No. GUS Foci [1, 5]: 7; No. GUS+ ([1]; Table 6, 0.25 mg/l 2,4-D + 0.5 mg/l zeatin, 24 explants): 4; % GUS+ [1, 6]: 60%; Avg. No. Foci/Responding Explant [1, 6]: 10.3; No. GUS Foci [1, 6]: 155; No. GUS+ ([1]; Table 6, 1.0 mg/l 2,4-D + 0.5 mg/l zeatin, 25 explants): 15; % GUS+ (E. urophylla; [11]): 72%; Avg. No. Foci/Responding Explant (E. urophylla; [11]): 10.8; No. GUS Foci (E. urophylla; [11]): 388; No. GUS+ (E. urophylla; 0.25 mg/l 2,4-D + 5.0 mg/l zeatin, with or without 250 μM AS, 50 explants): 36; shoot regeneration [2]: delay of shoot regeneration
COc1cc(C(C)=O)cc(OC)c1O [AS, acetosyringone]	–	–	–	–	–	–	–	–	–	–	–	–	–	–	–	–	infection ([3]; AS alone in the pre-culture medium): stimulates infection; infection of the wounded cells along the cut edges ([3]; GUS staining): increases the infection of the wounded cells along the cut edges
CN[C@@H]1[C@@H](O)[C@@H](O[C@@H]2[C@@H](O)[C@H](O[C@H]3O[C@H]([C@@H](C)O)[C@@H](O)[C@H](O)[C@H]3N)[C@@H](N)C[C@H]2N)OC[C@]1(C)O [Geneticin]	–	–	–	–	–	–	–	–	–	–	–	–	–	–	–	–	No. GUS+ Calli ([4]; Geneticin 20 mg/l, Regular shaded light, 5 calli stained): 0; No. GUS+ Calli ([4]; Geneticin 30 mg/l, Dark, 6 calli stained): 4; No. GUS+ Calli ([4]; Geneticin 30 mg/l, Regular shaded light, 17 calli stained): 13
O=C(O)Cc1c[nH]c2ccccc12 [IAA, indole-3-acetic acid]	–	–	–	–	64	7.3	116	16	64	10.4	167	16	–	–	–	–	% GUS+ [1, 14]: 96%; Avg. No. Foci/Responding Explant [1, 14]: 12.3; No. GUS Foci [1, 14]: 565; No. GUS+ ([1]; Table 7, 3.0 mg/l in EucReg Medium + 5 mg/l zeatin, 48 explants): 46; % GUS+ (E. urophylla; [15]): 73%; Avg. No. Foci/Responding Explant (E. urophylla; [15]): 8.0; No. GUS Foci (E. urophylla; [15]): 289; No. GUS+ (E. urophylla; 2 mg/l IAA + 5.0 mg/l zeatin, with or without 250 μM AS, 49 explants): 36
O=C(O)Cc1cccc2ccccc12 [NAA, naphthaleneacetic acid]	–	–	–	–	52	2.7	35	13	36	3.3	30	9	16	1.3	5	4	% GUS+ [1, 16]: 12%; Avg. No. Foci/Responding Explant [1, 16]: 2.3; No. GUS Foci [1, 16]: 6; No. GUS+ ([1]; Table 6, 0.1 mg/l NAA + 5.0 mg/l zeatin (Control Regeneration Medium), 25 explants): 3; % GUS+ (E. urophylla; [19]): 22%; Avg. No. Foci/Responding Explant (E. urophylla; [19]): 3.4; No. GUS Foci (E. urophylla; [19]): 37; No. GUS+ (E. urophylla; 0.1 mg/l NAA + 5.0 mg/l zeatin (Control Regeneration Medium), 50 explants): 11
O=C(Nc1ccccc1)Nc1cnns1 [TDZ, thiadiazuron]	4	3.0	3	1	0	0.0	0	0	–	–	–	–	12	8.3	25	3	–
